From article PMC7556481 (PLoS Pathogens, 2020) come the findings set out here.

The target of this assay is T1, C. elegans ser-7a / SER-7 (Caenorhabditis elegans, UniProt Q22895).
T1 construct: ser-7a cDNA expressed pan-neuronally (Psnb-1) in C. elegans ser-7(tm1325) null mutant
T1 sequence (Q22895 1-435): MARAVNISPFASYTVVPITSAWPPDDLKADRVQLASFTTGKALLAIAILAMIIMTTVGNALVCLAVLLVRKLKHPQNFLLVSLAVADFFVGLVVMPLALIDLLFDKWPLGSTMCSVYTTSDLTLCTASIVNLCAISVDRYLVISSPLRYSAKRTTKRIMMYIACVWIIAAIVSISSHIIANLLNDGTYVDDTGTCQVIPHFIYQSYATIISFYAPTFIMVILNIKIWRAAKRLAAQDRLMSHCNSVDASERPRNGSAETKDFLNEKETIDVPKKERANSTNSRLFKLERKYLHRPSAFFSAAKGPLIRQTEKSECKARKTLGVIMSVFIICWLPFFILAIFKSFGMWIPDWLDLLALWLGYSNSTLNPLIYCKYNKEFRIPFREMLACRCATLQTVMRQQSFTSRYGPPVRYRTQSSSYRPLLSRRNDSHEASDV
Description: pharyngeal pumping of cut-head preparation, C. elegans ser-7 null expressing ser-7a. The following applies: agonist; Dent's saline pH 7.4, 0.1% BSA; response dependent on SER-7.

`NCCc1c[nH]c2ccc(O)cc12` [serotonin] came in with an EC50 of 782 nM.
